Experiments:
Format in all cases: functional
HOP-62 = experiment: Cytotoxicity against human HOP62 cells assessed as cell growth at 100 uM after 48 hrs by sulforhodamine B assay relative to control; conditions: HOP-62, 48 h, read-out: Activity
NCI-H322M [1] = experiment: Cytotoxicity against human NCI-H322M cells assessed as cell growth at 10 uM after 48 hrs by sulforhodamine B assay relative to control; conditions: read-out: Activity
RXF 393 [2] = experiment: Cytotoxicity against human RXF393 cells assessed as cell growth at 0.1 uM after 48 hrs by sulforhodamine B assay relative to control; conditions: RXF 393, 48 h, read-out: Activity
NCI-H226 = experiment: Cytotoxicity against human NCI-H226 cells assessed as growth inhibition after 48 hrs by sulforhodamine B assay; conditions: NCI-H226, 48 h
IGROV-1 = experiment: Cytotoxicity against human IGROV1 cells assessed as cell growth at 0.01 uM after 48 hrs by sulforhodamine B assay relative to control; conditions: IGROV-1, 48 h, read-out: Activity
UACC-62 [3] = experiment: Cytotoxicity against human UACC62 cells assessed as cell growth at 10 uM after 48 hrs by sulforhodamine B assay relative to control; conditions: UACC-62, 48 h, read-out: Activity
SNB-19 [4] = experiment: Cytotoxicity against human SNB19 cells assessed as cell growth at 0.1 uM after 48 hrs by sulforhodamine B assay relative to control; conditions: SNB-19, 48 h, read-out: Activity
Malme-3M [5] = experiment: Cytotoxicity against human MALME-3M cells assessed as cell growth at 0.01 uM after 48 hrs by sulforhodamine B assay relative to control; conditions: read-out: Activity
SF-539 [6] = experiment: Cytotoxicity against human SF539 cells assessed as cell growth at 10 uM after 48 hrs by sulforhodamine B assay relative to control; conditions: SF-539, 48 h, read-out: Activity
HCT-15 = experiment: Cytotoxicity against human HCT15 cells assessed as cell growth at 0.1 uM after 48 hrs by sulforhodamine B assay relative to control; conditions: HCT-15, 48 h, read-out: Activity
UACC-62 [7] = experiment: Cytotoxicity against human UACC62 cells assessed as growth inhibition after 48 hrs by sulforhodamine B assay; conditions: UACC-62, 48 h
NCI-H322M [8] = experiment: Cytotoxicity against human NCI-H322M cells assessed as cell growth at 100 uM after 48 hrs by sulforhodamine B assay relative to control; conditions: read-out: Activity
SK-OV-3 = experiment: Cytotoxicity against human SKOV3 cells assessed as cell growth at 0.01 uM after 48 hrs by sulforhodamine B assay relative to control; conditions: SK-OV-3, 48 h, read-out: Activity
ACHN [9] = experiment: Cytotoxicity against human ACHN cells assessed as cell growth at 10 uM after 48 hrs by sulforhodamine B assay relative to control; conditions: read-out: Activity
CCRF-CEM [10] = experiment: Cytotoxicity against human CCRF-CEM cells assessed as growth inhibition after 48 hrs by sulforhodamine B assay
RXF 393 [11] = experiment: Cytotoxicity against human RXF393 cells assessed as cell growth at 100 uM after 48 hrs by sulforhodamine B assay relative to control; conditions: RXF 393, 48 h, read-out: Activity
NCI-H522 [12] = experiment: Cytotoxicity against human NCI-H522 cells assessed as cell growth at 1 uM after 48 hrs by sulforhodamine B assay relative to control; conditions: NCI-H522, 48 h, read-out: Activity
Malme-3M [13] = experiment: Cytotoxicity against human MALME-3M cells assessed as cell growth at 10 uM after 48 hrs by sulforhodamine B assay relative to control; conditions: read-out: Activity
OVCAR-3 = experiment: Cytotoxicity against human OVCAR3 cells assessed as cell growth at 100 uM after 48 hrs by sulforhodamine B assay relative to control; conditions: OVCAR-3, 48 h, read-out: Activity
RXF 393 [14] = experiment: Cytotoxicity against human RXF393 cells assessed as growth inhibition after 48 hrs by sulforhodamine B assay; conditions: RXF 393, 48 h
MDA-MB-231 = experiment: Cytotoxicity against human MDA-MB-231 cells assessed as growth inhibition after 48 hrs by sulforhodamine B assay; conditions: MDA-MB-231, 48 h
NCI-H522 [15] = experiment: Cytotoxicity against human NCI-H522 cells assessed as cell growth at 10 uM after 48 hrs by sulforhodamine B assay relative to control; conditions: NCI-H522, 48 h, read-out: Activity
HCT-116 [16] = experiment: Cytotoxicity against human HCT116 cells assessed as cell growth at 10 uM after 48 hrs by sulforhodamine B assay relative to control; conditions: HCT-116, 48 h, read-out: Activity
HCT-116 [17] = experiment: Cytotoxicity against human HCT116 cells assessed as cell growth at 0.1 uM after 48 hrs by sulforhodamine B assay relative to control; conditions: HCT-116, 48 h, read-out: Activity
CCRF-CEM [18] = experiment: Cytotoxicity against human CCRF-CEM cells assessed as cell growth at 0.01 uM after 48 hrs by sulforhodamine B assay relative to control; conditions: read-out: Activity
SNB-19 [19] = experiment: Cytotoxicity against human SNB19 cells assessed as cell growth at 10 uM after 48 hrs by sulforhodamine B assay relative to control; conditions: SNB-19, 48 h, read-out: Activity
BT-549 = experiment: Cytotoxicity against human BT549 cells assessed as growth inhibition after 48 hrs by sulforhodamine B assay; conditions: BT-549, 48 h
CCRF-CEM [20] = experiment: Cytotoxicity against human CCRF-CEM cells assessed as cell growth at 0.1 uM after 48 hrs by sulforhodamine B assay relative to control; conditions: read-out: Activity
OVCAR-4 = experiment: Cytotoxicity against human OVCAR4 cells assessed as growth inhibition after 48 hrs by sulforhodamine B assay; conditions: OVCAR-4, 48 h
SF-539 [21] = experiment: Cytotoxicity against human SF539 cells assessed as growth inhibition after 48 hrs by sulforhodamine B assay; conditions: SF-539, 48 h
SK-MEL-5 = experiment: Cytotoxicity against human SK-MEL-5 cells assessed as cell growth at 0.01 uM after 48 hrs by sulforhodamine B assay relative to control; conditions: SK-MEL-5, 48 h, read-out: Activity
K562 = experiment: Cytotoxicity against human K562 cells assessed as growth inhibition after 48 hrs by sulforhodamine B assay; conditions: K562, 48 h
UACC-257 = experiment: Cytotoxicity against human UACC257 cells assessed as cell growth at 0.1 uM after 48 hrs by sulforhodamine B assay relative to control; conditions: UACC-257, 48 h, read-out: Activity
ACHN [22] = experiment: Cytotoxicity against human ACHN cells assessed as cell growth at 1 uM after 48 hrs by sulforhodamine B assay relative to control; conditions: read-out: Activity
TK-10 = experiment: Cytotoxicity against human TK10 cells assessed as cell growth at 0.01 uM after 48 hrs by sulforhodamine B assay relative to control; conditions: TK-10, 48 h, read-out: Activity
SK-MEL-2 = experiment: Cytotoxicity against human SK-MEL-2 cells assessed as growth inhibition after 48 hrs by sulforhodamine B assay; conditions: SK-MEL-2, 48 h

COc1ccc(-c2cc(/C=C/C(=O)c3ccc(N)cc3)[nH]n2)cc1
growth at 100 µM (HOP-62): -60% | growth at 10 µM (NCI-H322M [1]): -2% | growth at 0.1 µM (RXF 393 [2]): 88% | GI50 (NCI-H226): 2000 nM | LC50 (concentration killing 50% of cells) (NCI-H226): 92100 nM | TGI (NCI-H226): 5570 nM | growth at 0.01 µM (IGROV-1): 98% | growth at 10 µM (UACC-62 [3]): -89% | growth at 0.1 µM (SNB-19 [4]): 89% | growth at 0.01 µM (Malme-3M [5]): 93% | growth at 10 µM (SF-539 [6]): -61% | growth at 0.1 µM (HCT-15): 100% | GI50 (UACC-62 [7]): 1480 nM | LC50 (UACC-62 [7]): 5840 nM | TGI (UACC-62 [7]): 2940 nM | growth at 100 µM (NCI-H322M [8]): -98% | growth at 0.01 µM (SK-OV-3): 101% | growth at 10 µM (ACHN [9]): 2% | GI50 (CCRF-CEM [10]): 1320 nM | LC50 (concentration killing 50% of cells) (CCRF-CEM [10]): 36100 nM | TGI (CCRF-CEM [10]): 4910 nM | growth at 100 µM (RXF 393 [11]): -63% | growth at 1 µM (NCI-H522 [12]): 61% | growth at 10 µM (Malme-3M [13]): -23% | growth at 100 µM (OVCAR-3): -85% | GI50 (RXF 393 [14]): 1670 nM | LC50 (concentration killing 50% of cells) (RXF 393 [14]): 15000 nM | TGI (RXF 393 [14]): 4190 nM | GI50 (MDA-MB-231): 2140 nM | LC50 (MDA-MB-231): 55500 nM | TGI (MDA-MB-231): 8290 nM | growth at 10 µM (NCI-H522 [15]): -70% | growth at 10 µM (HCT-116 [16]): -53% | growth at 0.1 µM (HCT-116 [17]): 105% | growth at 0.01 µM (CCRF-CEM [18]): 99% | growth at 10 µM (SNB-19 [19]): 5% | GI50 (BT-549): 1740 nM | LC50 (concentration killing 50% of cells) (BT-549): 36300 nM | TGI (BT-549): 4780 nM | growth at 0.1 µM (CCRF-CEM [20]): 98% | GI50 (OVCAR-4): 1080 nM | LC50 (OVCAR-4): 51200 nM | TGI (OVCAR-4): 8010 nM | GI50 (SF-539 [21]): 1470 nM | LC50 (concentration killing 50% of cells) (SF-539 [21]): 8250 nM | TGI (SF-539 [21]): 3480 nM | growth at 0.01 µM (SK-MEL-5): 97% | GI50 (K562): 1420 nM | LC50 (concentration killing 50% of cells) (K562): 69700 nM | TGI (K562): 11600 nM | growth at 0.1 µM (UACC-257): 97% | growth at 1 µM (ACHN [22]): 71% | growth at 0.01 µM (TK-10): 93%

COc1ccc(-c2cc(/C=C/C(=O)c3ccc4c(c3)OCO4)[nH]n2)cc1OC
GI50 (NCI-H226): 1660 nM | GI50 (UACC-62 [7]): 1860 nM | GI50 (CCRF-CEM [10]): 360 nM | GI50 (RXF 393 [14]): 1920 nM | GI50 (MDA-MB-231): 1880 nM | GI50 (BT-549): 1440 nM | GI50 (SK-MEL-2): 2460 nM | GI50 (OVCAR-4): 1920 nM | GI50 (SF-539 [21]): 520 nM | GI50 (K562): 610 nM
